The subject of data set [1] is Leberegel (Fasciola hepatica). Nature of the data set: Chemotherapeutic test in sheep infected with liver fluke (egg count reduction / worm burden). Particulars: Tabelle 1, Wirtstier: Schaf, p.o.; for minimal effective dose: Fasciola hepatica, po, minimum curative dose, read-out: Dosis (>90% Reduktion der Wurmbürde); for Chemotherapeut. Index: quotient of Dosis tolerata maxima and Dosis curativa minima. The format is in vivo. The text has this:
(§1) Zur Feststellung der anthelminthischen Wirkung der Verbindungen der Formel I wurden chemotherapeutische Untersuchungen an ca. 25-30 kg schweren Schaflämmern ausgeführt, die entweder mit Metazerkarien von Fasciola hepatica oder mit Larven von Magen-Darm-Strongyliden, vornehmlich Haemonchus contortus und Trichostongylus colubriformis, oral infiziert worden waren. Nach Ablauf der Präpatenzperiode (Zeit zwischen Infektion und Geschlechtsreife der Parasiten mit beginnender Ausscheidung von Eiern oder Larven) wurde der Parasitenbefall durch Kotuntersuchungen gesichert. […] Unmittelbar danach wurde die Behandlung der Schafe (im allgemeinen 3 - 4 Tiere pro Wirkstoff, mindestens aber 2) vorgenommen. Den Tieren wurde oral oder parenteral eine Suspension von unterschiedlicher Wirkstoffmenge in jeweils 10 ml einer 1%igen Carboxymethylcellulose-Suspension appliziert. Jeweils am 7., 14. und 28. Tag nach der Behandlung wurde wiederum nach den vorstehend angegebenen Verfahren die Eizahl pro Gramm Kot ermittelt und ihre prozentuale Abnahme im Vergleich zum Ausgangswert vor der Behandlung errechnet. Mit einigen Verbindungen wurden außerdem beim Fasciola-Befall noch eine zusätzliche Prüftechnik angewandt: Nach Abschluß der Präpatenzperiode wurde bei Fasciola-positiven Schafen ein künstlicher Gallengang geschaffen, der am Ausgang der Gallenblase ein Sieb enthielt, so daß die nach der Behandlung abgetöteten Leberegel in der Gallenblase aufgefangen werden konnten. Vier bis sieben Tage nach der Behandlung wurden die so operierten und dann behandelten Schafe getötet, die abgetöteten Leberegel in der Gallenblase sowie noch eventuell in der Leber vorhandene lebende Leberegel gezählt und von der gesamten Wurmbürde der Prozentsatz der abgetöteten Parasiten berechnet.
(§2) Der chemotherapeutische Index gibt den Quotienten aus Do- sis tolerata maxima und Dosis curativa minima an.

The subject of data set [2] is Magen-Darm-Würmer(Ostertagia, Haemonchur, Trichostrongylus, Cooperia, jeweils verschiedene Spezies). Nature of the data set: Chemotherapeutic test in sheep infected with gastrointestinal worms (egg count reduction / worm burden). The following applies: Tabelle 2, Wirtstier: Schaf; for Chemotherapeut. Index: quotient of Dosis tolerata maxima and Dosis curativa minima; for minimal effective dose: Trichostrongylus, read-out: Dosis (>90% Reduktion der Wurmbürde). The class given is in vivo.
From the text: as §1, §2

The structures appear in SMILES notation. Like-named read-outs stand apart in the source and are kept apart here.

As to `O=[N+]([O-])c1cc(Cl)cc(-c2cc(Cl)cc([N+](=O)[O-])c2O)c1O` [Niclofolan, 5,5'-Dichlor-2-2'-dihydroxy-3,3'-dinitro-biphenyl, reference compound], in data set [1], the minimal effective dose worked out at 3 mg/kg and the “Chemotherapeut. Index” value is 3. Moreover, the “Dosis (>90% Reduktion der Wurmbürde)” value in data set [2] (result in words, route not printed (oral bzw. subkutan)) was “keine Wirkung”.

For the compound `O=C(Nc1ccc(Oc2ccc(Cl)cc2)c(Cl)c1)c1cc(I)cc(I)c1O` [Rafoxanide, 3'-Chlor-4'-(p-chlor-phenoxy)-3,5-dijod-salicylanilid, reference compound], the minimal effective dose in data set [1] came out at 7.5 mg/kg; in data set [2] (po, p.o.), 7.5 mg/kg. In addition, the “Chemotherapeut. Index” value in data set [1] and in data set [2] (p.o.) was 6 each time.

In the case of `O=C(Nc1ccc(Cl)cc1)c1cc(Cl)cc(Cl)c1NS(=O)(=O)c1ccc(Cl)cc1` [Verbindung 13, 3,5-Dichlor-2-[(4-chlor-phenylsulfonyl)-amino]-benzoesäure-(4-chlor-anilid)], the minimal effective dose in data set [1] worked out at 5 mg/kg; in data set [2] (po, p.o.), 10 mg/kg. Further, the “Chemotherapeut. Index” value in data set [1] worked out at 10; in data set [2] (p.o.) it was 5.

Turning to `O=C(Nc1ccc(Cl)cc1)c1cc(Cl)ccc1NS(=O)(=O)c1ccc(Br)cc1` [Verbindung 20, 5-Chlor-2-[(4-brom-phenylsulfonyl)-amino]-benzoesäure-(4-chlor-anilid)], the minimal effective dose in data set [1] was determined as 2.5 mg/kg; in data set [2] (po, p.o.), 10 mg/kg. For the same compound, the results for the “Chemotherapeut. Index” value in data set [1] and in data set [2] (p.o.) were 20 and 5, respectively.

For `O=C(Nc1ccc(Br)cc1)c1cc(Cl)ccc1NS(=O)(=O)c1ccc(Br)cc1` [Verbindung 21], the “Chemotherapeut. Index” value in data set [2] (s.c.) is “über 6”. Besides, in data set [2] (sc, s.c.), the minimal effective dose amounted to 5 mg/kg.

For the compound `O=C(Nc1ccc(Cl)cc1)c1cc(Cl)ccc1NS(=O)(=O)c1ccc(F)cc1` [Verbindung 22, 5-Chlor-2-[(4-fluor-phenylsulfonyl)-amino]-benzoesäure-(4-chloranilid)], the “Chemotherapeut. Index” value in data set [2] (p.o.) is 5. In addition, in data set [2] (po, p.o.), the minimal effective dose was 10 mg/kg.

For `CCCCCCCCCCCCN(C)C(=O)c1cc(Cl)ccc1NS(=O)(=O)c1ccc(Cl)c(Cl)c1` [Verbindung 33, 5-Chlor-2-[(3,4-dichlor-phenylsulfonyl)-amino]-benzoesäure-(N-methyl-dodecylamid)], the “Chemotherapeut. Index” value in data set [2] (s.c.) was “über 6”. The minimal effective dose in data set [2] (sc, s.c.) worked out at 5 mg/kg.

In the case of `O=C(Nc1ccc(OC(F)(F)F)cc1)c1cc(Cl)ccc1NS(=O)(=O)c1ccc(Cl)c(Cl)c1` [Verbindung 35, 5-Chlor-2-[(3,4-dichlorphenylsulfonyl)-amino]-benzoesäure-(4-trifluormethoxy-anilid)], the minimal effective dose in data set [1] came to 2.5 mg/kg; in data set [2] (po, p.o.), 10 mg/kg. For the same compound, the results for the “Chemotherapeut. Index” value in data set [1] and in data set [2] (p.o.) were 20 and 5, respectively.

For `O=C(Nc1ccc(Cl)cc1)c1cc([N+](=O)[O-])ccc1NS(=O)(=O)c1ccc(Cl)c(Cl)c1` [Verbindung 38, 2-[(3,4-Dichlor-phenylsulfönyl)-amino]-5-nitrobenzoesäure-(4-chlor-anilid)], the “Chemotherapeut. Index” value in data set [2] (p.o.) was 6. Moreover, in data set [2] (po, p.o.), the minimal effective dose was found to be 7.5 mg/kg.

As to `CCN(C(=O)c1cc(Cl)ccc1N(C)S(=O)(=O)c1ccc(Cl)c(Cl)c1)c1ccc(Cl)cc1` [Verbindung 42], the minimal effective dose in data set [1] came to 2.5 mg/kg; in data set [2] (po, p.o.) it was 5 mg/kg. The “Chemotherapeut. Index” value in data set [1] was determined as 20; in data set [2] (p.o.), 10.
